The labels stand for the following.
B1: rOaAEP4: recombinant Oldenlandia affinis asparaginyl endopeptidase OaAEP4 (protein)
chain: MVRYPAGAVLLLVVLSVVAVDGARDGYLKLPSEVSDFFRPRNTNDGDDSVGTRWAVLLAGSNGYWNYRHQADLCHAYQILKRGGLKDENIVVFMYDDIAYNEENPRPGVIINSPHGSDVYAGVPKDYTGDEVNAKNFLAAILGNKSAITGGSGKVVDSGPNDHIFIYYTDHGAPGVIGMPSKPYLYADELNDALRKKHASGTYKSMVFYLEACEAGSMFDGLLPDGLNIYALTASNTTEGSWCYYCPGQDAGPPPEYSVCLGDFFSIAWLEDSDVHNLRSETLNQQYHNVKNRISYASHATQYGDLKRGVEGLFLYLGSNPENDNYTFVDDNVVRPSSKAVNQRDADLVHFWEKFRKAPEGSSKKEEAQKQILEAMSHRVHIDSSINLIGKLLFGIEKGHKILTAVRSAGHPLVDDWACLRSLVRTFETHCGSLSQYGMKHTRTLANICNAGITEEQMAEAASQACVSIPSNPWSSHDGGFSA
modifications: OaAEP4 aa
notes: recombinant Oldenlandia affinis asparaginyl endopeptidase OaAEP4
B2: rOaAEP3: recombinant Oldenlandia affinis asparaginyl endopeptidase OaAEP3 (protein)
chain: MVRYLAGAFQVVLLVVILSDIAISEERTDGYLKLPTEVSRFFRTPEQSSDGGDDSIGTRWAVLIAGSKGYDNYRHQADVCHAYQILKRGGLKDENIVVFMYDDIAYNESNPRPGVIINSPHGSDVYAGVPKDYTGDEVNAKNFLAAILGNKSAITGGSGKVVDSGPNDHIFIYYTDHGAPGVIGMPSKPYLYADELNDALRKKHASGTYKSMVFYLEACEAGSMFDGLLPDGLNIYALTASNTTEGSWCYYCPGQDAGPPPEYSVCLGDFFSIAWLEDSDVHNLRSETLNQQYHNVKNRISYASHATQYGDLKRGVEGLFLYLGSNPENDNYTFVDDNVVRPSSKAVNQRDADLVHFWEKFRKAPEGSSKKEEAQKQILEAMSHRVHIDSSINLIGKLLFGIEKGHKILTAVRSAGHPLVDDWACLRSLVRTFETHCGSLSQYGMKHTRTLANICNAGITEEQMAEAASQACVSIPSNPWSSHDGGFSA
modifications: Oldenlandia affinis OaAEP3

Here are results for 13 molecules from US20190225652A1, “GENERATION OF PEPTIDES” (Hexima Limited, priority 2015, published 2019).

The test system of the first assay is target peptide-linker-ubiquitin-6xHis fusion protein. The assay is described as follows: AEP-mediated processing of target peptides fused to ubiquitin. The conditions noted are these: kalata B1-ubiquitin 260 μg mL^−1, AEP 19.7 μg mL^−1 total protein, 22 h, SDS-PAGE/anti-6xHis Western blot. The assay is classed as biochemical. For orientation: A western blot detects proteins with antibodies after separation by electrophoresis.
Turning to “rOaAEP5: recombinant Oldenlandia affinis asparaginyl endopeptidase OaAEP5”, the “proportion of fusion protein enzymatically processed (loss of precursor)” value is reported as “the bulk of the precursor was being enzymatically processed”.
The same measure, in the same setting: under B1 stands “a smaller proportion of the precursor protein was processed”; under B2, “the bulk of the precursor was being enzymatically processed”.

System in a further assay: not listed separately
The assay is described as follows: Protease activity against fluorogenic substrate Z-AAN-MCA. It is filed as biochemical. The conditions noted are these: enzyme ~5 μg mL^−1 total protein, Z-AAN-MCA 100 μM, 37° C., 60 minutes. As to the method: FIG. 15 is a graphical representation of the activity of recombinant O. affinis AEPs (˜5 μg mL^−1 total protein) and rhuLEG (1 μg mL^−1 total protein) over time against the fluorogenic substrate Z-AAN-MCA (100 μM). Activity is tracked at 1 minute intervals at 37° C. for 60 minutes using excitation and emission wavelengths of 360 and 460 nm respectively. A single representative experiment is shown. RFU, relative fluorescence units.
To assay activity of recombinant AEPs (rOaAEP1b, rOaAEP3, rOaAEP4 or rOaAEP5) against both internally-quenched and other fluorescent peptides, substrate and enzyme were diluted as appropriate in activity buffer (50 mM sodium acetate, 50 mM NaCl, 1 mM EDTA, 0.5 μM TCEP, pH 5). To assay activity of recombinant human legumain (rhuLEG; R&D systems) against the same substrates, the enzyme was first activated by incubation in 50 mM sodium acetate, 100 mM NaCl, pH 4 (4 μL buffer/1 μL enzyme) for 2 hours at 37° C. Substrates and activated rhuLEG were diluted in 50 mM acetate, 0.1% v/v triton X 100, 0.5 μM TCEP pH 5.5 or in 50 mM MES, 250 mM NaCl, pH 5 as required. Diluted enzyme and substrate were added to black, flat bottomed microtiter plates in a total assay volume of 100-200 μL. The change in fluorescence intensity over time was monitored on a SpectraMax M2 (Molecular Devices) using excitation/emission wavelengths of 320/420 nm (IQF peptides) or 360/460 nm (other fluorescent peptides).
AEP activity has traditionally been tracked by monitoring cleavage of the fluorescent substrate Z-AAN-MCA (where Z is carboxybenzyl; MCA is 7-amido-4-methylcoumarin) [Saska et al. (2007) supra; Rotari et al. (2001) Biol. Chem. 382:953-959]. Cleavage C-terminal to the Asn liberates the fluorophore which then fluoresces to report substrate cleavage. […] They are Ac-YVAD-CHO, which is routinely used to identify AEP activity (Hatsugai et al. (2004) Science 305(5685): 855-858) and Ac-STRN-CHO, which represents the P1-P4 residues of the C-terminal kB1 cleavage site. These traditional routes of identifying AEP activity will therefore likely be ineffective for identification of AEPs with cyclizing ability.
For “rOaAEP5: recombinant Oldenlandia affinis asparaginyl endopeptidase OaAEP5”, the “activity against Z-AAN-MCA” value is given as “nor rOaAEP1b, rOaAEP3, rOaAEP4 or rOaAEP5 (FIG. 15) had detectable activity”.
As for B1, the “activity against Z-AAN-MCA” value is recorded as “nor rOaAEP1b, rOaAEP3, rOaAEP4 or rOaAEP5 (FIG. 15) had detectable activity”.
On the same count and under the same terms, under B2 stands “nor rOaAEP1b, rOaAEP3, rOaAEP4 or rOaAEP5 (FIG. 15) had detectable activity”.

The next assay deals with rOaAEP1b, rOaAEP3, rOaAEP4 and rOaAEP5. In words: Cyclization assay with rOaAEP1b, rOaAEP3, rOaAEP4 and rOaAEP5 (MALDI/ESI MS). It is filed as biochemical, Oldenlandia affinis. The conditions noted are these: peptides with added AEP recognition residues, 280 μM, enzymes 19.7 μg mL^−1 total protein, MS. As to the method:
Linear target peptides (280 μM, unless otherwise indicated) were incubated with rOaAEP1b, rOaAEP3, rOaAEP4 or rOaAEP5 (total protein concentration as indicated in the description of figures) in activity buffer (50 mM sodium acetate, 50 mM NaCl, 1 mM ethylenediaminetetraacetic acid [EDTA], 0.5 μM Tris(2-carboxyethyl)phosphine hydrochloride [TCEP], pH 5). The reaction was allowed to proceed for up to 22 hours at room temperature and was analysed by matrix-assisted laser desorption/ionization mass spectrometry (MALDI MS), high performance liquid chromatography (HPLC) or nuclear magnetic resonance (NMR) as appropriate.
Cyclization or inter-molecular ligation of linear target peptides was monitored by MALDI or ESI MS. In both cases, the reaction mixture (5-50 μL) was de-salted using C18 zip tips (Millipore) and eluted in 4 μL 50-75% v/v acetonitrile, 0.1% v/v trifluoroacetic acid (TFA).
For MALDI MS, a saturated MALDI matrix solution (α-cyano-4-hyroxycinnamic acid, CHCA, Bruker) prepared in 95% v/v acetonitrile, 0.1% v/v TFA was diluted 1:22 such that the final matrix solution comprised 90% v/v acetonitrile, 0.1% v/v TFA and 1 mM NH4H2PO4. Eluted samples were mixed 1:4 with the MALDI matrix, spotted onto a MALDI plate and analyzed by an Ultraflex III TOF/TOF (Bruker) in positive reflector mode. Data were analyzed using the flexAnalysis program (Bruker).
For ESI MS, 96 μl of 75% v/v acetonitrile, 01% v/v TFA was added to the de-salted sample. The sample was then injected into a MicroTOF Q (Bruker) and data was collected in positive ionisation mode. The mass of ligated or cyclized product was determined by charge deconvolution using the Compass DataAnalysis program (Bruker).
The ability of activated AEPs (rOaAEP1b, rOaAEP3, rOaAEP4 and rOaAEP5) to cyclize peptide substrates structurally unrelated to cyclotides was tested in the cyclization assay described in the Materials and Methods. The anti-malarial peptide R1 (Harris et al. (2009) J Biol Chem 284(14):9361-9371; Harris et al. (2005) Infect Immun 73(10):6981-6989); Bac2A, a linear derivative of the bovine peptide bactenecin (Wu and Hancock (1999) Antimicrob Agents Ch 43:1274-1276); and the anti-fungal peptide EcAMP1 (Nolde et al. (2011) J Biol Chem 286(28):25145-25153) were produced with additional AEP recognition residues and used as the substrates.
To investigate the sequence requirements for in vitro cyclization, R1 was used as a model peptide. The recognition residues added to this model peptide were sequentially trimmed to determine the minimal requirements for AEP-mediated cyclization. The N- and C-terminal recognition residues were also substituted with alternate amino acids to determine if particular classes of residues were preferred for cyclization by these recombinant AEPs. The ability of activated AEPs (rOaAEP1b, rOaAEP3, rOaAEP4 and rOaAEP5) to cyclize the R1 peptide with varied flanking sequences was then tested in the cyclization assay described in the Materials and Methods (FIG. 10; Table 3).
For “GLPGSGRGSCRSQCMRRHEDEPWRVQECVSQCRRRRGGGDTRNGLP (additional AEP recognition residues; EcAMP1) [anti-fungal peptide EcAMP1 with additional AEP recognition residues]”, the “cyclization of linear precursor peptide by recombinant AEPs” value was “efficiently cyclized”.
In the case of GLPRLARIVVIRVARTRNGLP (Bac2A), the “cyclization of linear precursor peptide by recombinant AEPs” value is “efficiently cyclized”.
Same read-out and setting: under “GLPVFAEFLPLFSKFGSRMHILKSTRNGL (R1) [anti-malarial peptide R1 produced with additional AEP recognition residues]” stands “efficiently cyclized”.

A further assay relates to rOaAEP1b. In words: Cyclization assay with rOaAEP1b (MALDI MS). It is filed as biochemical, Oldenlandia affinis. As to conditions: MALDI MS.
Chain of rOaAEP1b (as listed by the source): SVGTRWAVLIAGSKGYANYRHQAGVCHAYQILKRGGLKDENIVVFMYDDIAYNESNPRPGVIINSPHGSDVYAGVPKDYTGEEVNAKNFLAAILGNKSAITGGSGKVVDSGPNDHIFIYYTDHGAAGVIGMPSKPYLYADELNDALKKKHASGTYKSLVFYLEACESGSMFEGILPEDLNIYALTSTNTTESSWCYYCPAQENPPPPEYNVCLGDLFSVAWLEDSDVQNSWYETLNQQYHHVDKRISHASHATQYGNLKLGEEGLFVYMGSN
As for “VFAEFLPLFSKFGSRMHILK [native R1 peptide, reference compound]”, the “processing/cyclization by rOaAEP1b” value is given as “No processing”.

Still in this assay, the particulars now being: rOaAEP1b 12 μg mL^−1 total protein, 22 hours; peak area as percentage of total peak area of that peptide; average of three experiments.
On to “GLPVFAEFLPLFSKFGSRMHILKSTRNGLP (rOaAEP1b-mediated processing) [SEQ ID NO: 26, R1 peptide derivative]”, for which the “Cyclic product (%)” value is recorded as 78.8% and the “Linear precursor (%)” value turned out to be 21.2%.
Turning to “GLVFAEFLPLFSKFGSRMHILKNG (rOaAEP1b-mediated processing) [SEQ ID NO: 28, R1 peptide derivative]”, the “Linear precursor (%)” value amounted to 100%.
For “GLVFAEFLPLFSKFGSRMHILKNGL (rOaAEP1b-mediated processing) [SEQ ID NO: 27, R1 peptide derivative]”, the “Cyclic product (%)” value is recorded as 92.9% and the “Linear precursor (%)” value came to 7.1%.
As for “KLVFAEFLPLFSKFGSRMHILKNGL (rOaAEP1b-mediated processing) [SEQ ID NO: 31, R1 peptide derivative]”, the “Cyclic product (%)” value stood at 82.2% and the “Linear precursor (%)” value amounted to 17.8%.
Take “QLVFAEFLPLFSKFGSRMHILKNGL (rOaAEP1b-mediated processing) [SEQ ID NO: 30, R1 peptide derivative]”: the “Cyclic product (%)” value is on record as 93.1% and the “Linear precursor (%)” value is reported as 6.9%.
For “VFAEFLPLFSKFGSRMHILKNGL (rOaAEP1b-mediated processing) [SEQ ID NO: 29, R1 peptide derivative]”, the “Cyclic product (%)” value is reported as 49.6%, the “Linear precursor (%)” value is reported as 27.7% and the “Linear product (%)” value stood at 27.7%.
